Reference: ChEMBL document CHEMBL2346498, “Expression, characterization and inhibition of Toxoplasma gondii 1-deoxy-D-xylulose-5-phosphate reductoisomerase” (Bioorg Med Chem Lett, 2013)

Test: Inhibition of recombinant Toxoplasma gondii DXR catalytic domain (68 to 513) expressed in Escherichia coli BL21 using DXP as substrate after 10 mins by Uv-spectrophotometric analysis
Assay type: cell-free

Row | SMILES | Ki
1 | O=CN(O)CCC(c1ccncc1)P(=O)(O)O (stereo unspecified) | 79 nM
2 | CC(=O)N(O)CCC(c1ccc(Cl)c(Cl)c1)P(=O)(O)O (stereo unspecified) | 220 nM
3 | O=P(O)(O)Cc1ccc(-c2ccccc2)cn1 | 2100 nM
4 | CC(=O)N(O)CCC(c1cccnc1)P(=O)(O)O (stereo unspecified) | 970 nM
5 | O=P(O)(O)Cc1ccccn1 [PYRIDIN-2-YLMETHYLPHOSPHONIC ACID] | 4100 nM
6 | CC(=O)N(O)CCC(c1ccncc1)P(=O)(O)O (stereo unspecified) | 530 nM
7 | O=CN(O)CCC(c1cccnc1)P(=O)(O)O (stereo unspecified) | 55 nM
8 | CC(=O)N(O)CCCP(=O)(O)O [FR-900098] | 48 nM
9 | O=c1ccc(-c2ccccc2)cn1O [1-HYDROXY-5-PHENYLPYRIDIN-2(1H)-ONE] | 25600 nM
10 | O=CN(O)CCCP(=O)(O)O [FOSMIDOMYCIN] | 90 nM
11 | O=CN(O)CCC(c1ccc(Cl)c(Cl)c1)P(=O)(O)O (stereo unspecified) | 77 nM
